{"source": "patent US8299048B2", "about": "“Hexahydrocyclopentyl[f]indazole sulfonamides and derivatives thereof as selective glucocorticoid receptor modulators” (Merck Sharp & Dohme Corp., priority 2008, dated 2012)", "data": [{"target": "T1, glucocorticoid receptor (Homo sapiens, UniProt P04150)", "T1 construct": "endogenous in cells", "T1 sequence (P04150 1-777)": "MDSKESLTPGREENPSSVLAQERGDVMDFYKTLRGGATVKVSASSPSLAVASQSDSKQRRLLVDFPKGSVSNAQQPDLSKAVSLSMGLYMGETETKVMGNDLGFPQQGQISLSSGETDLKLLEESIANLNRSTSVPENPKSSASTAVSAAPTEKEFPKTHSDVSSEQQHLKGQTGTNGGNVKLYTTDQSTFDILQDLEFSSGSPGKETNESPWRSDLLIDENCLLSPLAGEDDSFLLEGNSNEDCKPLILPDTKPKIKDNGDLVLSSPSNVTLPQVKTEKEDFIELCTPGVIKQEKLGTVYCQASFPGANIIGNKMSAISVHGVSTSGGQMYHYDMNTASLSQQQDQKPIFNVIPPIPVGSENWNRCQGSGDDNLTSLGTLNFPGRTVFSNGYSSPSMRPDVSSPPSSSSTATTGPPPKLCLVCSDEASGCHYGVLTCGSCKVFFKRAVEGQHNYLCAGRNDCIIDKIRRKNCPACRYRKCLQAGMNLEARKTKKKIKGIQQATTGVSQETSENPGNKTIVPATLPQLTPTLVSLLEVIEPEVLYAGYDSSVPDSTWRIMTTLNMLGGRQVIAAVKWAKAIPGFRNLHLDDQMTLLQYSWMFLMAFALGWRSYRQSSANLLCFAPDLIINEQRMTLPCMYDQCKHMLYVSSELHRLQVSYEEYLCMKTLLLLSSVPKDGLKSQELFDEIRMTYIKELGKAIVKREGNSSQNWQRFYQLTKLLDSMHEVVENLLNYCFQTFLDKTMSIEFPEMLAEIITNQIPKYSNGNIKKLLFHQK", "assay": "Ligand binding assay (GR BIND)", "in_short": "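Cytosol from freeze–thawed cells in TEGM (pH 7.2, 10 mM molybdate) was incubated overnight at 4 °C with compound and [3H]-dexamethasone trace (added as 6 nM solution), 2% EtOH final. Bound ligand was captured on hydroxylapatite, filtered, washed and scintillation counted. Values were calculated with dexamethasone as reference.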", "units": {"Ki": "nM"}, "values": [{"molecule": "C[C@]12Cc3cnn(-c4ccc(F)cc4)c3C=C1CC[C@@H]2CN(CC(O)C(F)F)S(=O)(=O)Cc1cccnc1", "note": "(stereo partly drawn) [Example 154, N-(3,3-difluoro-2-hydroxypropyl)-N-{[(4αR,5S)-1-(4-fluorophenyl)-4α-methyl-1,4,4α,5,6,7-hexahydrocyclopenta[f]indazol-5-yl]methyl}-1-pyridin-3-ylmethanesulfonamide]", "Ki": 1.3}, {"molecule": "CCCS(=O)(=O)N(CC(O)C(F)F)C[C@H]1CCC2=Cc3c(cnn3-c3ccc(F)cc3)C[C@@]21C", "note": "(stereo partly drawn) [Example 155, N-(3,3-difluoro-2-hydroxypropyl)-N-{[(4αR,5S)-1-(4-fluorophenyl)-4α-methyl-1,4,4α,5,6,7-hexahydrocyclopenta[f]indazol-5-yl]methyl}propane-1-sulfonamide]", "Ki": 2.9}, {"molecule": "Cn1cc(S(=O)(=O)N(CC(O)C(F)F)C[C@H]2CCC3=Cc4c(cnn4-c4ccc(F)cc4)C[C@@]32C)c(C(F)(F)F)n1", "note": "(stereo partly drawn) [Example 156, N-(3,3-difluoro-2-hydroxypropyl)-N-{[(4αR,5S)-1-(4-fluorophenyl)-4α-methyl-1,4,4α,5,6,7-hexahydrocyclopenta[f]indazol-5-yl]methyl}-1-methyl-3-(trifluoromethyl)-1H-pyrazole-4-sulfonamide]", "Ki": 2.5}, {"molecule": "Cn1cc(S(=O)(=O)N(CC(O)c2ccccn2)C[C@H]2CCC3=Cc4c(cnn4-c4ccc(F)cc4)C[C@@]32C)c(C(F)(F)F)n1", "note": "(stereo partly drawn) [Example 157, N-{[(4αR,5S)-1-(4-fluorophenyl)-4α-methyl-1,4,4α,5,6,7-hexahydrocyclopenta[f]indazol-5-yl]methyl}-N-(2-hydroxy-2-pyridin-2-ylethyl)-1-methyl-3-(trifluoromethyl)-1H-pyrazole-4-sulfonamide]", "Ki": 0.8}, {"molecule": "C[C@]12Cc3cnn(-c4ccc(F)cc4)c3C=C1CC[C@@H]2CN(CC=O)S(=O)(=O)c1ccccc1F", "note": "[Example 158, 2-fluoro-N-{[(4αR,5S)-1-(4-fluorophenyl)-4α-methyl-1,4,4α,5,6,7-hexahydrocyclopenta[f]indazol-5-yl]methyl}-N-(2-oxoethyl)benzenesulfonamide]", "Ki": 4.2}, {"molecule": "COC(=O)c1ccccc1CCN(C[C@H]1CCC2=Cc3c(cnn3-c3ccc(F)cc3)C[C@@]21C)S(=O)(=O)CC(F)(F)F", "note": "[Example 159, methyl 2-(2-{{[(4αR,5S)-1-(4-fluorophenyl)-4α-methyl-1,4,4α,5,6,7-hexahydrocyclopenta[f]indazol-5-yl]methyl}[(2,2,2-trifluoroethyl)sulfonyl]amino}ethyl)benzoate]", "Ki": 1.9}, {"molecule": "COC(=O)c1cc(Cl)ccc1CCN(C[C@H]1CCC2=Cc3c(cnn3-c3ccc(F)cc3)C[C@@]21C)S(=O)(=O)CC(F)(F)F", "note": "[Example 160, methyl 5-chloro-2-(2-{{[(4αR,5S)-1-(4-fluorophenyl)-4α-methyl-1,4,4α,5,6,7-hexahydrocyclopenta[f]indazol-5-yl]methyl}[(2,2,2-trifluoroethyl)sulfonyl]amino}ethyl)benzoate]", "Ki": 3.4}, {"molecule": "Cc1noc(C)c1S(=O)(=O)NC[C@H]1CCC2=Cc3c(cnn3-c3ccc(F)cc3)C[C@@]21C", "note": "[Example 161, N-{[(4αR,5S)-1-(4-fluorophenyl)-4α-methyl-1,4,4α,5,6,7-hexahydrocyclopenta[f]indazol-5-yl]methyl}-3,5-dimethylisoxazole-4-sulfonamide]", "Ki": 4.8}, {"molecule": "COC(=O)c1ccccc1CS(=O)(=O)N(CC(O)C(F)(F)F)C[C@H]1CCC2=Cc3c(cnn3-c3ccc(F)cc3)C[C@@]21C", "note": "(stereo partly drawn) [Example 162, methyl 2-({[{[(4αR,5S)-1-(4-fluorophenyl)-4α-methyl-1,4,4α,5,6,7-hexahydrocyclopenta[f]indazol-5-yl]methyl}(3,3,3-trifluoro-2-hydroxypropyl)amino]sulfonyl}methyl)benzoate]", "Ki": 0.5}, {"molecule": "C[C@]12Cc3cnn(-c4ccc(F)cc4)c3C=C1CC[C@@H]2CN(CCc1ccccc1CO)S(=O)(=O)CC(F)(F)F", "note": "[Example 163, 2,2,2-trifluoro-N-{[(4αR,5S)-1-(4-fluorophenyl)-4α-methyl-1,4,4α,5,6,7-hexahydrocyclopenta[f]indazol-5-yl]methyl}-N-{2-[2-(hydroxymethyl)phenyl]ethyl}ethanesulfonamide]", "Ki": 1.7}, {"molecule": "C[C@]12Cc3cnn(-c4ccc(F)cc4)c3C=C1CC[C@@H]2CN(CC(O)C(F)(F)F)S(=O)(=O)Cc1ccccc1C(=O)O", "note": "(stereo partly drawn) [Example 164, 2-({[{[(4αR,5S)-1-(4-fluorophenyl)-4α-methyl-1,4,4α,5,6,7-hexahydrocyclopenta[f]indazol-5-yl]methyl}(3,3,3-trifluoro-2-hydroxypropyl)amino]sulfonyl}methyl)benzoic acid]", "Ki": 3.2}, {"molecule": "C[C@]12Cc3cnn(-c4ccc(F)cc4)c3C=C1CC[C@@H]2CN(CCc1ccccn1)S(=O)(=O)Cc1ccccn1", "note": "[Example 165, N-{[(4αR,5S)-1-(4-fluorophenyl)-4α-methyl-1,4,4α,5,6,7-hexahydrocyclopenta[f]indazol-5-yl]methyl}-1-pyridin-2-yl-N-(2-pyridin-2-ylethyl)methanesulfonamide]", "Ki": 1.6}, {"molecule": "C[C@]12Cc3cnn(-c4ccc(F)cc4)c3C=C1CC[C@@H]2CN(CCc1ccccn1)S(=O)(=O)Cc1ccncc1", "note": "[Example 166, N-{[(4αR,5S)-1-(4-fluorophenyl)-4α-methyl-1,4,4α,5,6,7-hexahydrocyclopenta[f]indazol-5-yl]methyl}-1-pyridin-4-yl-N-(2-pyridin-2-ylethyl)methanesulfonamide]", "Ki": 1.6}, {"molecule": "C[C@]12Cc3cnn(-c4ccc(F)cc4)c3C=C1CC[C@@H]2CN(CC(O)C(F)(F)F)S(=O)(=O)Cc1ccccc1C(N)=O", "note": "(stereo partly drawn) [Example 167, 2-({[{[(4αR,5S)-1-(4-fluorophenyl)-4α-methyl-1,4,4α,5,6,7-hexahydrocyclopenta[f]indazol-5-yl]methyl}(3,3,3-trifluoro-2-hydroxypropyl)amino]sulfonyl}methyl) benzamide]", "Ki": 2.2}, {"molecule": "Cc1noc(C)c1S(=O)(=O)N(C[C@H]1CCC2=Cc3c(cnn3-c3ccc(F)cc3)C[C@@]21C)C[C@@H](C)O", "note": "[Example 168, N-{[(4αR,5S)-1-(4-fluorophenyl)-4α-methyl-1,4,4α,5,6,7-hexahydrocyclopenta[f]indazol-5-yl]methyl}-N-[(2R)-2-hydroxypropyl]-3,5-dimethylisoxazole-4-sulfonamide]", "Ki": 1.5}]}]}
